Assay results as given in US9902696B2, “1,4-substituted piperidine derivatives” (Cephalon, Inc., priority 2015, dated 2018).
Structures can show the parent of a compound that is named as a salt.

Target: T1, recombinant human baculovirus-expressed GST-tagged FASN (Homo sapiens, UniProt P49327)
T1 construct: GST
Test: FASN enzyme activity assay, fluorescence-based detection of CoA with CPM
Format: biochemical
Conditions: 5 nM FASN, 150 μM NADPH, 10 μM acetyl-CoA, 25 μM malonyl-CoA, 90 minutes incubation; read-out: IC50 data for Additional Compounds of Formulae I-V(a): Activity
Outline: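 CoA product reacted with thiol-reactive CPM (diluted to 50 μM in 70% ethanol), read at 390/530 nm after 30 min. Preceding reaction: 90 min, 5 nM recombinant GST-FASN, 150 μM NADPH, 10 μM acetyl-CoA, 25 μM malonyl-CoA, pH 7.5 HEPES, 0.5% DMSO. IC50s fitted by nonlinear sigmoidal regression.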

T1 sequence (P49327 whole entry): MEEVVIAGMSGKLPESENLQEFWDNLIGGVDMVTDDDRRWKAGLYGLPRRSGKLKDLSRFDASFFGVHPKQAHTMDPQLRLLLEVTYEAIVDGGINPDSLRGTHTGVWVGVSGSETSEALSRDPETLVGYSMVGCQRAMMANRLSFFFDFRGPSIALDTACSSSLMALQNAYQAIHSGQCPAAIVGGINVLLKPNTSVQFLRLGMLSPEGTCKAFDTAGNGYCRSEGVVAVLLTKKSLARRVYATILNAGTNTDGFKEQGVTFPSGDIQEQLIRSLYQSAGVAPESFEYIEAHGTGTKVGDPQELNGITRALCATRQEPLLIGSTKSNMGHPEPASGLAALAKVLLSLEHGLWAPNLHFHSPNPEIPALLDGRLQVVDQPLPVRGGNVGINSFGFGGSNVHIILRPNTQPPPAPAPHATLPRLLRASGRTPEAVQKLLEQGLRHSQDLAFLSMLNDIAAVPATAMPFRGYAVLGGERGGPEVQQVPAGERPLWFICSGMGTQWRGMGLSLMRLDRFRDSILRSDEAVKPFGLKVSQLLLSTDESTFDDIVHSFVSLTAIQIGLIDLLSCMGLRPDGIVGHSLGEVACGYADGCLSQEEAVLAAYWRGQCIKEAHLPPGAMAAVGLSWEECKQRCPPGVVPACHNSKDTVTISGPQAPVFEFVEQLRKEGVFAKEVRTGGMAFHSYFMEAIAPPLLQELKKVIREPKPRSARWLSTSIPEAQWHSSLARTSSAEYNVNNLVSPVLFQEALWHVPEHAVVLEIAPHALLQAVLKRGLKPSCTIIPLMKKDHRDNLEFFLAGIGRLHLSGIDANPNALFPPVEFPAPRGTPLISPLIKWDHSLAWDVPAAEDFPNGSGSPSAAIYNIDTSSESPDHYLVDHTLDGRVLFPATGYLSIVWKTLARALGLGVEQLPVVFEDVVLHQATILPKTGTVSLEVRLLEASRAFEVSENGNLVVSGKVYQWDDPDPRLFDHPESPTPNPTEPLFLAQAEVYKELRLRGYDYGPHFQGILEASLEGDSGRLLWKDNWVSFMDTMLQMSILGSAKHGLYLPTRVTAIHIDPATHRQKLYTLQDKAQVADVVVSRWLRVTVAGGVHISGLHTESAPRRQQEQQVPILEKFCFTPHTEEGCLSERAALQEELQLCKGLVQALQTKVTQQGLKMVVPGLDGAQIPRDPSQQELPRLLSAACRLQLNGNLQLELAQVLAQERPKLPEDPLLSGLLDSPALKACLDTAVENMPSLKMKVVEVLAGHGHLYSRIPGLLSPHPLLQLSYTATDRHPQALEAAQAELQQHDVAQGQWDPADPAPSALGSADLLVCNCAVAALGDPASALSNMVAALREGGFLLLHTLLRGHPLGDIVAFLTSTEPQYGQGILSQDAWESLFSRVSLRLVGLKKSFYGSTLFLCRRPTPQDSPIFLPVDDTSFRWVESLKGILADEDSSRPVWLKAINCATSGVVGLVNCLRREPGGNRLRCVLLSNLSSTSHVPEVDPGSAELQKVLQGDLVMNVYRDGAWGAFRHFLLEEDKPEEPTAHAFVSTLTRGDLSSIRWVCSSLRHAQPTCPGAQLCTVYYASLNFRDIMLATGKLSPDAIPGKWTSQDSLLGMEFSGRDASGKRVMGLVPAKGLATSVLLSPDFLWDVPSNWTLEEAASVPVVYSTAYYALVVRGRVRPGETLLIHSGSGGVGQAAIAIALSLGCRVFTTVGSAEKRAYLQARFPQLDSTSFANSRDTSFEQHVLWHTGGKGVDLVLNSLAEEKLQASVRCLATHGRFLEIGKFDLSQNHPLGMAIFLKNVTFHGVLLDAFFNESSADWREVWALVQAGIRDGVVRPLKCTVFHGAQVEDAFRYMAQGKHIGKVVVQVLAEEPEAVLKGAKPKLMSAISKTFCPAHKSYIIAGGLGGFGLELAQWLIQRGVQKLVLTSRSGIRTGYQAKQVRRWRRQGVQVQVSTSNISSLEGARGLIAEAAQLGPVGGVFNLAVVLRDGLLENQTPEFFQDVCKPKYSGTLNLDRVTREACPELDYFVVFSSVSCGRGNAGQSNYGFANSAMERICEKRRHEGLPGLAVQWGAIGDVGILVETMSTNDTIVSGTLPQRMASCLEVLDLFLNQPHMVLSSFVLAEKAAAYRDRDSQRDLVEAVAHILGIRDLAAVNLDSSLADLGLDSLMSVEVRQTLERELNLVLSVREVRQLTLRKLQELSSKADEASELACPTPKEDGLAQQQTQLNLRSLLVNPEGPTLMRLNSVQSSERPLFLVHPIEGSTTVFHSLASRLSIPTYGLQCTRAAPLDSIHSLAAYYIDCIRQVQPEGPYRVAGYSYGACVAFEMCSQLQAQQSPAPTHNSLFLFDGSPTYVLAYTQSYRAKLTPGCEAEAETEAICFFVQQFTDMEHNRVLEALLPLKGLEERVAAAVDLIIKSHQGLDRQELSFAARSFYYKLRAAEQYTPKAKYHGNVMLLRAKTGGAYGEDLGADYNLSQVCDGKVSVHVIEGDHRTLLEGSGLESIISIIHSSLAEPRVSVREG

With `C=CCOC(=O)N1CCC(Oc2ccc(-c3ccc4cccnc4c3C)cc2)CC1` [Example 551, Allyl 4-[4-(8-methyl-7-quinolyl)phenoxy]piperidine-1-carboxylate, HCl] as the molecule, how does the IC50 read?
Its IC50 is 1000 to 10000 nM.

Which IC50 does the source give for `CCNC(=O)N1CCC(Oc2ccc(-c3ccn4ccnc4c3C)cc2)CC1` [Example 629, N-Ethyl-4-[4-(8-methylimidazo[1,2-a]pyridin-7-yl)phenoxy]piperidine-1-carboxamide, HCl] here?
Its IC50 is 1000 to 10000 nM.

Same assay, conditions: 5 nM FASN, 150 μM NADPH, 10 μM acetyl-CoA, 25 μM malonyl-CoA, 90 minutes incubation; read-out: IC50 data for Compounds of Formulae I-V/V(a): Activity

How did the IC50 turn out when `O=C(C1CC1)N1CCC(Oc2ccc(-c3cc4ccccc4cn3)cc2)CC1` [Example 44, Cyclopropyl-[4-(4-isoquinolin-3-yl-phenoxy)-piperidin-1-yl]-methanone] was run?
Its IC50 is 1 to 99 nM.

With `Cc1cncc2cc(-c3ccc(OC4CCN(C(=O)[C@H]5CCCO5)CC4)cc3)ccc12` [Example 459, {4-[4-(4-Methylisoquinolin-6-yl)-phenoxy]-piperidin-1-yl}-(R)-tetrahydrofuran-2-yl-methanone, HCl] as the molecule, how does the IC50 read?
The IC50 was 1 to 99 nM.

For `Cc1c(-c2ccc(O[C@H]3C[C@H]4CC[C@@H](C3)N4C(=O)[C@H]3CCCO3)cc2)ccc2cccnc12` [Example 371, {endo-3-[4-(8-Methylquinolin-7-yl)-phenoxy]-8-aza-bicyclo[3.2.1]oct-8-yl}-(R)-tetrahydrofuran-2-yl-methanone, HCl], which IC50 is on record?
Its IC50 is 1 to 99 nM.

Which IC50 does the source give for `O=C(C1CC1)N1CCC(Oc2ccc(-c3ccc4cccnc4c3Cl)cc2F)CC1` [Example 222, {4-[4-(8-Chloroquinolin-7-yl)-2-fluorophenoxy]-piperidin-1-yl}-cyclopropyl-methanone] here?
Its IC50 is 1 to 99 nM.

How did the IC50 turn out when `O=C(C1CC1)N1CCC(Oc2ccc(-c3cnc4c(c3)CCCC4)cc2)CC1` [Example 19, Cyclopropyl-{4-[4-(5,6,7,8-tetrahydro-quinolin-3-yl)-phenoxy]-piperidin-1-yl}-methanone] was run?
Its IC50 is 1000 to 10000 nM.

Which IC50 does the source give for `CCC(=O)N1CCC(Oc2ccc(-c3cnc4cc(C)ccc4c3)cc2)CC1` [Example 63, 1-{4-[4-(7-Methylquinolin-3-yl)-phenoxy]-piperidin-1-yl}-propan-1-one] here?
The IC50 was 100 to 999 nM.

`CN1CCN(c2c(-c3ccc(OC4CCN(C(=O)[C@H]5CCCO5)CC4)cc3)ccc3cccnc23)CC1` [Example 323, [4-[4-[8-(4-Methylpiperazin-1-yl)-7-quinolyl]phenoxy]-1-piperidyl]-[(2R)-tetrahydrofuran-2-yl]methanone] was tested. Which IC50 did it give?
Its IC50 is 1000 to 10000 nM.

With `CCC(=O)N1CCC(Oc2ccc(-c3ccc4ccc(C)nc4c3F)cc2)CC1` [Example 25, 1-{4-[4-(8-Fluoro-2-methylquinolin-7-yl)-phenoxy]-piperidin-1-yl}-propan-1-one] as the molecule, how does the IC50 read?
The IC50 was 1000 to 10000 nM.

With `O=C(C1CC1)N1CCC(Oc2ccc(-c3ccc4cccnc4c3F)cc2)CC1` [Example 23, Cyclopropyl-{4-[4-(8-fluoroquinolin-7-yl)-phenoxy]-piperidin-1-yl}-methanone] as the molecule, how does the IC50 read?
The IC50 was 1 to 99 nM.

For `O=C(C1CC1)N1CCC(Oc2ccc(-c3ccc(Oc4ccccc4)nc3)cc2)CC1` [Example 390, Cyclopropyl-{4-[4-(6-phenoxy-pyridin-3-yl)-phenoxy]-piperidin-1-yl}-methanone], which IC50 is on record?
Its IC50 is 1000 to 10000 nM.

How did the IC50 turn out when `CCC(=O)N1CCC(Oc2ccc(-c3cnc4ccccc4n3)cc2)CC1` [Example 66, 1-[4-(4-Quinoxalin-2-yl-phenoxy)-piperidin-1-yl]-propan-1-one] was run?
The IC50 was 100 to 999 nM.

Which IC50 does the source give for `Cc1c(-c2ccc(OC3CCN(C(=O)C4(N)CC4)CC3)cc2)ccc2cccnc12` [Example 316, (1-Aminocyclopropyl)-{4-[4-(8-methyl-quinolin-7-yl)-phenoxy]-piperidin-1-yl}-methanone] here?
The IC50 was 1 to 99 nM.

For `O=C(C1CC1)N1CCC(Oc2ccc(-c3cccc(-c4ccccn4)c3F)cc2)CC1` [Example 396, Cyclopropyl-[4-(2′-fluoro-3′-pyridin-2-yl-biphenyl-4-yloxy)-piperidin-1-yl]-methanone], which IC50 is on record?
Its IC50 is 1000 to 10000 nM.

Which IC50 does the source give for `CCC(=O)N1CCC(Oc2ccc(-c3ccc4cnc(N)cc4c3)cc2)CC1` [Example 422, 1-{4-[4-(3-Aminoisoquinolin-6-yl)-phenoxy]-piperidin-1-yl}-propan-1-one] here?
The IC50 was 100 to 999 nM.

With `CCC(=O)N1CCC(Sc2ccc(-c3cnc4ccccc4c3)cc2)CC1` [Example 518, 1-(4-((4-(Quinolin-3-yl)phenyl)thio)piperidin-1-yl)propan-1-one, HCl] as the molecule, how does the IC50 read?
The IC50 was 1 to 99 nM.

Which IC50 does the source give for `O=C(C1CC1)N1CCC(Oc2ccc(-c3ccc4ccccc4n3)cc2)CC1` [Example 39, Cyclopropyl-[4-(4-quinolin-2-yl-phenoxy)-piperidin-1-yl]-methanone] here?
The IC50 was 100 to 999 nM.

With `CCC(=O)N1CCC(Oc2ccc(-c3ccc4cccnc4c3Cl)cc2)CC1` [Example 261, 1-{4-[4-(8-Chloroquinolin-7-yl)-phenoxy]-piperidin-1-yl}-propan-1-one] as the molecule, how does the IC50 read?
The IC50 was 1 to 99 nM.

For `CCC(=O)N1CCC(Oc2ccc(-c3ccc4sccc4c3)cc2)CC1` [Example 247, 1-[4-(4-Benzo[b]thiophen-5-yl-phenoxy)-piperidin-1-yl]-propan-1-one], which IC50 is on record?
The IC50 was 100 to 999 nM.

For `CCC(=O)N1CCC(Sc2ccc(-c3cncc4ccccc34)cc2)CC1` [Example 519, 1-(4-((4-(Isoquinolin-4-yl)phenyl)thio)piperidin-1-yl)propan-1-one, HCl], which IC50 is on record?
Its IC50 is 1000 to 10000 nM.

`CCC(=O)N1CCC(Oc2ccc(-c3ccc4nccn4c3C)cc2)CC1` [Example 286, 1-{4-[4-(5-Methylimidazo[1,2-a]pyridin-6-yl)-phenoxy]-piperidin-1-yl}-propan-1-one] was tested. Which IC50 did it give?
The IC50 was 1000 to 10000 nM.

With `O=C(C1CC1)N1CCC(Oc2ncc(-c3cnc4ccccc4c3)cn2)CC1` [Example 139, Cyclopropyl-[4-(5-quinolin-3-yl-pyrimidin-2-yloxy)-piperidin-1-yl]-methanone, 2HCl] as the molecule, how does the IC50 read?
Its IC50 is 1000 to 10000 nM.

`CCC(=O)N1CCC(Oc2ccc(-c3ccnc(Oc4ccccc4)c3)cc2)CC1` [Example 409, 1-{4-[4-(2-Phenoxypyridin-4-yl)-phenoxy]-piperidin-1-yl}-propan-1-one] was tested. Which IC50 did it give?
Its IC50 is 1000 to 10000 nM.

For `O=C(C1CC1)N1CCC(Oc2ccc(-c3ccc(-c4ccccc4)nc3)cc2)CC1` [Example 380, Cyclopropyl-{4-[4-(6-phenyl-pyridin-3-yl)-phenoxy]-piperidin-1-yl}-methanone], which IC50 is on record?
The IC50 was 1000 to 10000 nM.

Which IC50 does the source give for `O=C([C@H]1CCCO1)N1CCC(Oc2ccc(-c3ccc4cccnc4c3C3CC3)cc2)CC1` [Example 475, [4-[4-(8-Cyclopropyl-7-quinolyl)phenoxy]-1-piperidyl]-[(2R)-tetrahydrofuran-2-yl]methanone, HCl] here?
The IC50 was 1 to 99 nM.

Which IC50 does the source give for `O=C([C@H]1CCCO1)N1CCC(Oc2ccc(-c3ccc4cccnc4c3Cl)cc2)CC1` [Example 260, {4-[4-(8-Chloro-quinolin-7-yl)-phenoxy]-piperidin-1-yl}-(R)-tetrahydro-furan-2-yl-methanone, TFA salt] here?
Its IC50 is 1 to 99 nM.

With `CCC(=O)N1CCC(Oc2ccc(-c3ccc4cccnc4c3OCCCOC)cc2)CC1` [Example 179, 1-[4-[4-[8-(3-Methoxypropoxy)-7-quinolyl]phenoxy]-1-piperidyl]propan-1-one, HCl] as the molecule, how does the IC50 read?
Its IC50 is 100 to 999 nM.

`CCC(=O)N1CCC(Oc2ccc(-c3cnc4ccccc4c3C)cc2F)CC1` [Example 228, 1-{4-[2-Fluoro-4-(4-methylquinolin-3-yl)-phenoxy]-piperidin-1-yl}-propan-1-one] was tested. Which IC50 did it give?
The IC50 was 100 to 999 nM.

How did the IC50 turn out when `Nc1nccc2cc(-c3ccc(OC4CCN(C(=O)[C@H]5CCCO5)CC4)cc3)ccc12` [Example 454, {4-[4-(1-Aminoisoquinolin-6-yl)-phenoxy]-piperidin-1-yl}-(R)-tetrahydro-furan-2-yl-methanone] was run?
The IC50 was 1 to 99 nM.
